Assay results: patent publication US20110039762A1, “TARGETED ANTIMICROBIAL MOIETIES” (C3 JIAN, INC., priority 2009, published 2011)
“Also recorded” adds a separate entry of the source. Square brackets hold non-standard residues; d marks the D form. Ends that are not written are not given here. Aib = CC(C)(N)C(=O)O

Tested on: microorganisms (e.g., bacteria, yeasts, fungi)
Assay: Targeting peptide binding to target microorganisms (Table 3)
Settings: peptide binding in aqueous buffers varied by peptide solubility; preferably 1x PBS

| Substance | Target(s) (microorganisms bound by the targeting peptide) |
| --- | --- |
| PF-767 (DGKQGEPVALKPTDN; Peptide with targeting and/or antimicrobial activity) | S. epidermidis and M. luteus and E. coli and MRSA and S. pneumoniae and E. faecalis and C. jeikeium |
| PF-768 (GFRGGKRGGARG; Peptide with targeting and/or antimicrobial activity) | S. epidermidis; also recorded: S. pneumoniae; also recorded: E. faecalis; also recorded: C. jeikeium |
| PF-772 (TKESSS; Peptide with targeting and/or antimicrobial activity) | S. epidermidis and C. albicans and MRSA and S. pneumoniae and C. jeikeium |
| PF-773 (TLKESK; Peptide with targeting and/or antimicrobial activity) | S. epidermidis; also recorded: C. albicans; also recorded: C. jeikeium |
| PF-777 (PGADGKLAEASAAIARLVRS; Peptide with targeting and/or antimicrobial activity) | Mycobacteria spp. |
| PF-778 (MNLILTAHGT; Peptide with targeting and/or antimicrobial activity) | Mycobacteria spp. |
| PF-779 (IYGDFFNFYLCDISLKVNGLQPGGPVRTVKLFGQPTGRCTPQ; Peptide with targeting and/or antimicrobial activity) | Mycobacteria spp. |
| PF-780 (AVYDALVALAAAEHRAELATRDARAKDTYEKIGVHVVVAA; Peptide with targeting and/or antimicrobial activity) | Mycobacteria spp. |
| PF-781 (PLVVVNHRRAERSRG; Peptide with targeting and/or antimicrobial activity) | Mycobacteria spp. |
| PF-782 (TGPRRGIDLTSNRALSEVLDEGLELNSRK; Peptide with targeting and/or antimicrobial activity) | Mycobacteria spp. |
| PF-783 (FTSEVRGVFTYRVNKAGLITNMRGYWNLDMMTFGNQE; Peptide with targeting and/or antimicrobial activity) | Mycobacteria spp. |
| PF-784 (MAMTTVDNIVGLVIAVALMAFLFAALLFPEKF; Peptide with targeting and/or antimicrobial activity) | Mycobacteria spp. |
| PF-785 (MRPQHSPAGKAFVVKKITHEQS; Peptide with targeting and/or antimicrobial activity) | Mycobacteria spp. |
| PF-786 (LSERERRRLKRGII; Peptide with targeting and/or antimicrobial activity) | Mycobacteria spp. |
| PF-787 (MTERQRRALLKQHPEVVSWSDYLEKRKRRTGTAG; Peptide with targeting and/or antimicrobial activity) | Mycobacteria spp. |
| PF-788 (GLITVFAGTARILQLRRAAKKTHAAALR; Peptide with targeting and/or antimicrobial activity) | Mycobacteria spp. |
| PF-789 (PRGAQSGHG; Peptide with targeting and/or antimicrobial activity) | Mycobacteria spp. |
| PF-790 (PAGPDHLDQRDHR; Peptide with targeting and/or antimicrobial activity) | Mycobacteria spp. |
| PF-791 (IFLTTQNTDYSEHNAA; Peptide with targeting and/or antimicrobial activity) | S. mutans |
| PF-792 (ALHASGIQAI; Peptide with targeting and/or antimicrobial activity) | S. mutans |
| PF-793 (YTQ[Aib]NNASAYAMLLTNKDTVP) | S. mutans |
